The target of the experiment is T1, hTLR9 (Homo sapiens, UniProt Q9NR96).
T1 sequence (Q9NR96 26-1032): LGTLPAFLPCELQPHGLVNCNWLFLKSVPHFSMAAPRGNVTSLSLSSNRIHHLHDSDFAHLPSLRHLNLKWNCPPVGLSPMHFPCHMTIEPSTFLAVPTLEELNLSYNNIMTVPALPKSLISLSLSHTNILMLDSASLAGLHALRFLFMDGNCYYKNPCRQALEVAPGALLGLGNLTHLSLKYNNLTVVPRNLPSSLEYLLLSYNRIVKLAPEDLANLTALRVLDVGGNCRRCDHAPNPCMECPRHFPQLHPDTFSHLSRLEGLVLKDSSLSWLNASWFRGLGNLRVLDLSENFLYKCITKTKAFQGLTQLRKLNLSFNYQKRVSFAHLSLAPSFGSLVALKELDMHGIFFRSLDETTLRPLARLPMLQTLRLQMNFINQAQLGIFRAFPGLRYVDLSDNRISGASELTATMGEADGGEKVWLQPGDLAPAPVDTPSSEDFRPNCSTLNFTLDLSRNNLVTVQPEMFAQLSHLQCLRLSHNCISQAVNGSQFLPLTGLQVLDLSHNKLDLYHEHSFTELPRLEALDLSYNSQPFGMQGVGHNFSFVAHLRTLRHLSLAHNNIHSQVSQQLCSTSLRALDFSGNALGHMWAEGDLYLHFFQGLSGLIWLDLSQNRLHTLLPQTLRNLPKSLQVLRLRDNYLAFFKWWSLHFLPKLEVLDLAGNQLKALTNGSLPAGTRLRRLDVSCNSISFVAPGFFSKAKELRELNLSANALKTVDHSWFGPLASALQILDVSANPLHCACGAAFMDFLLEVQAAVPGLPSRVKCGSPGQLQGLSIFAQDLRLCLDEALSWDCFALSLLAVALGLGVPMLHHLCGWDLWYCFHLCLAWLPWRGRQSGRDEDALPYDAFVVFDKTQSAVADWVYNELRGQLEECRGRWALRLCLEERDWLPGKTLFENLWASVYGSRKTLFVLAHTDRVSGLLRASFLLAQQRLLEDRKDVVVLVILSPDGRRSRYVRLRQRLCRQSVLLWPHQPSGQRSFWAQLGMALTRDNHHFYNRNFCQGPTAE
Kind of experiment: HEK293-Blue-hTLR-9 cells assay (SEAP reporter, ODN2006 stimulation). The format is cell-based. Details: host or cells: HEK293 (HEK-Blue hTLR9). To be noted: HEK293-Blue-hTLR9 cells, ODN2006, 20 hrs; read-out: HEK/hTLR9 IC50. The gist of the method:
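Antagonism read as lowered SEAP reporter absorbance (620–655 nm, QUANTI-Blue, 2 h, 37 °C) in supernatants. Before that, ODN2006-stimulated HEK293-Blue cells stably expressing human TLR9 were exposed to compound dilutions at 1% final DMSO for 20 h at 37 °C.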
Consider `C[C@@H]1CN(c2ccc(C#N)c3nccnc23)C[C@H](CN2CCN(c3ccnc(N4C[C@@H](N)[C@@H](F)C4)n3)CC2)O1` [Example 108, 8-[(2S,6R)-2-[[4-[2-[(3R,4S)-3-amino-4-fluoro-pyrrolidin-1-yl]pyrimidin-4-yl]piperazin-1-yl]methyl]-6-methyl-morpholin-4-yl]quinoxaline-5-carbonitrile], for which the IC50 came to 68 nM.

Take `C[C@@H]1CN(c2ccc(C#N)n3ncc(F)c23)C[C@H](CN2CC(c3ccc(N4C[C@@H]5C[C@H]4CN5)nc3)C2)O1` [Example 165, 4-[(2S,6R)-2-[[3-[6-[(1S,4S)-2,5-diazabicyclo[2.2.1]heptan-2-yl]-3-pyridyl]azetidin-1-yl]methyl]-6-methyl-morpholin-4-yl]-3-fluoro-pyrazolo[1,5-a]pyridine-7-carbonitrile]: the IC50 turned out to be 108 nM.

For `[2H]c1ccc2c(N3C[C@H](CN4CCN(c5ccc(N6CC(C)(N)C6)nc5C)CC4)O[C@H](C)C3)ccc(C#N)c2n1` [Example 137, 5-[(2S,6R)-2-[[4-[6-(3-amino-3-methyl-azetidin-1-yl)-2-methyl-3-pyridyl]piperazin-1-yl]methyl]-6-methyl-morpholin-4-yl]-2-deuterio-quinoline-8-carbonitrile], the IC50 is 66 nM.

`[2H]c1ccc2c(N3C[C@H](CN4CCN(c5ccc(N6CC(C)(N)C6)nc5)CC4)O[C@H](C)C3)ccc(C#N)c2n1` [Example 132, 5-[(2S,6R)-2-[[4-[6-(3-amino-3-methyl-azetidin-1-yl)-3-pyridyl]piperazin-1-yl]methyl]-6-methyl-morpholin-4-yl]-2-deuterio-quinoline-8-carbonitrile]: the IC50 is 140 nM.

On to `Cc1cc(N2CCNCC2)nc(N2CCN(C[C@H]3CN(c4ccc(C#N)c5nccnc45)C[C@@H](C)O3)CC2)n1` [Example 114, 8-[(2R,6S)-2-methyl-6-[[4-(4-methyl-6-piperazin-1-yl-pyrimidin-2-yl)piperazin-1-yl]methyl]morpholin-4-yl]quinoxaline-5-carbonitrile], for which the IC50 came out at 62 nM.

As for `[2H]c1ccc2c(N3C[C@H](CN4CC(c5cccc(N6CC(C)(N)C6)n5)C4)O[C@H](C)C3)ccc(C#N)c2n1` [Example 159, 5-[(2S,6R)-2-[[3-[6-(3-amino-3-methyl-azetidin-1-yl)-2-pyridyl]azetidin-1-yl]methyl]-6-methyl-morpholin-4-yl]-2-deuterio-quinoline-8-carbonitrile], the IC50 came out at 100 nM.

As for `C[C@@H]1CN(c2ccc(C#N)c3ncccc23)C[C@H](CN2CCC(c3cccc(C4CCNCC4)c3)CC2)O1` [Example 2, 5-[(2R,6S)-2-methyl-6-[[4-[3-(4-piperidyl)phenyl]-1-piperidyl]methyl]morpholin-4-yl]quinoline-8-carbonitrile], the IC50 came to 74 nM.

Regarding `C[C@@H]1CN(c2ccc(C#N)c3nccnc23)C[C@H](CN2CCN(c3nccc(N4C[C@@H](N)[C@H](F)C4)n3)CC2)O1` [Example 119, 8-[(2S,6R)-2-[[4-[4-[(3R,4R)-3-amino-4-fluoro-pyrrolidin-1-yl]pyrimidin-2-yl]piperazin-1-yl]methyl]-6-methyl-morpholin-4-yl]quinoxaline-5-carbonitrile], the IC50 was determined as 94 nM.

Regarding `C[C@@H]1CN(c2ccc(C#N)c3ncccc23)C[C@H](CN2CCN(c3ccc(CN)cc3)CC2)O1` [Example 5, 5-[(2S,6R)-2-[[4-[4-(aminomethyl)phenyl]piperazin-1-yl]methyl]-6-methyl-morpholin-4-yl]quinoline-8-carbonitrile], the IC50 was determined as 198 nM.

In the case of `COC1CN(c2nccc(N3CCN(C[C@H]4CN(c5ccc(C#N)c6ncccc56)C[C@@H](C)O4)CC3)n2)CC1N` (stereo in doubt) [Example 93, 5-[(2S,6R)-2-[[4-[2-[(3R,4S)-3-amino-4-methoxy-pyrrolidin-1-yl]pyrimidin-4-yl]piperazin-1-yl]methyl]-6-methyl-morpholin-4-yl]quinoline-8-carbonitrile], the IC50 was 31 nM.

The values are drawn from patent publication US20210395239A1 (Hoffmann-La Roche Inc., priority 2018, published 2021).
